Assay results reported in patent US20030069307A1, “2-(3,4-Dihydroxyphenyl)ethyl-substituted carbonic acid derivatives and their use” (priority 2001, published 2003).

Key:
[1] = Rancimat accelerated autoxidation of lipids by air, soya bean oil; details: antioxidant power AP = IP(with test solution)/IP(control sample), soya bean oil purified on alumina type N, 0.05% test substance, higher = better
Description: (§1) The activity of the example compounds as antioxidants was compared with that of conventional antioxidants. The test system used was accelerated autoxidation of lipids by air with or without antioxidants, using the Rancimat apparatus (Deutsche Lebensmiftel-Rundschau 1974, vol. 70, pp. 57 to 65) (Rancimat is a registered trademark of Metrohm AG, Herisau, Switzerland).
(§2) The example compounds, vitamin C, α-tocopherol and 3,5-ditert-butyl-4-hydroxytoluene were dissolved in methanol or acetone and 100 μl of the respective test solution were added to a prepared oil sample of 3 g. Only solvent was added to a control sample. A constant dry air stream (20 I/h) was blown through the heated oil sample containing the test solution and the volatile oxidation products (principally short-chain fatty acids, such as formic acid or acetic acid) were collected in a receiver containing water. The conductivity of this aqueous solution was measured continuously and documented. The oxidation of (unsaturated) fats proceeds here only very slowly for a period, and then suddenly increases. The time until the increase is termed the induction period (IP).
(§3) From the equation below, the antioxidant power (AP) was obtained:
(§4) AP=IP(with test solution)/IP(control sample).
(§5) The higher the AP, the higher is the antioxidant activity.

[2] = Rancimat accelerated autoxidation of lipids by air, squalene; details: antioxidant power AP = IP(with test solution)/IP(control sample), squalene purified on alumina type N, stabilized with 1 ppm α-tocopherol
Description: as §1, §2, §3, §4, §5
The results for the experiment at 80° C. in squalene which was purified on alumina type N and stabilized with 1 ppm of α-tocopherol are shown in Table 7: […]

[3] = DPPH test for the elimination of free radicals (activity as free-radical scavenger); details: DPPH 100 μmol/l in methanol, absorption at 515 nm; smaller = better
Description: The activity of the exemplary compounds as free-radical scavengers was compared with conventional free-radical scavengers. For this, the DPPH (1,1-diphenyl-2-picryl-hydrazyl) test for the elimination of free-radicals was employed (Lebensm.-Wiss. u. Technol., 1995, vol. 28, pp. 25 to 30).
DPPH was dissolved in methanol to give a concentration of 100 μmol/l. A series of dilutions of the example compounds, vitamin C, α-tocopherol and 3,5-ditert-butyl-4-hydroxytoluene were prepared in methanol. Methanol served as control. 2500 μl of the DPPH solution were mixed with 500 μl of each test solution and the decrease in absorption at 515 nm was read off until the decrease was less than 2% per hour. The activity of the test substances as free-radical scavengers was calculated from the following equation:
Activity as free-radical scavenger (%)=100−(absorption of the test compounds)/absorption of the control)×100.
From activity as free-radical scavenger (%) in a number of dilutions of test compounds, for each test compound the effective relative concentration EC50 (based on the initial concentration of DPPH, EC=c (test compound)/c(DPPH)) of a test compound was calculated at which the free-radical DPPH was eliminated by 50%. The smaller the EC50 values, the better is the free-radical scavenging action.

SMILES | AP in soya bean oil at 100° C. containing 0.05% of test substance [1] | AP in squalene at 80° C. containing 0.005% test substance [2] | EC50 (effective relative concentration, c(test compound)/c(DPPH), at which the free-radical DPPH was eliminated by 50%) [3] [mol/mol]
CC(C)[C@@H]1CC[C@@H](C)C[C@H]1OC(=O)NCCc1ccc(O)c(O)c1 [Example 2, N-[2-(3,4-Dihydroxyphenyl)ethyl]-O-[(1R,3R,4S)-menthyl]urethane] | 7.1 | 25 | 0.35
CCCCCCNC(=S)NCCc1ccc(O)c(O)c1 [Example 5, N-[2-(3,4-Dihydroxyphenyl)ethyl]-N′-hexylthiourea] | 14.4 | 59 | 
CCCCCCOC(=O)NCCc1ccc(O)c(O)c1 [Example 3, N-[2-(3,4-Dihydroxyphenyl)ethyl]-O-hexylurethane] | 9.8 | 46 | 0.24
O=C1O[C@H]([C@@H](O)CO)C(O)=C1O [Vitamin C, reference compound] | 1.2 | 0.7 | 0.27
Cc1c(C)c2c(c(C)c1O)CC[C@@](C)(CCC[C@H](C)CCC[C@H](C)CCCC(C)C)O2 [α-Tocopherol, reference compound] | 5.1 | 39 | 0.25
Cc1cc(C(C)(C)C)c(O)c(C(C)(C)C)c1 [3,5-Ditert-butyl-4-hydroxytoluene, reference compound] | 4.8 | 38 | 0.24
CCCCCCNC(=O)NCCc1ccc(O)c(O)c1 [Example 6, N-[2-(3,4-Dihydroxyphenyl)ethyl]-N′-hexylurea] | 26 | 60 | 0.20
COC(=O)NCCc1ccc(O)c(O)c1 [Example 1, N-[2-(3,4-Dihydroxyphenyl)ethyl]-O-methylurethane] | 15.3 | 76 | 0.27
CCCCC(CC)COC(=O)NCCc1ccc(O)c(O)c1 (centres unmarked) [Example 4, N-[2-(3,4-Dihydroxyphenyl)ethyl]-O-(2-ethylhexyl)urethane] | 7.6 | 50 | 0.25
